Results reported in patent US20220362386A1, “LIQUID COMPOSITIONS COMPRISING A LEVODOPA AMINO ACID CONJUGATE AND USES THEREOF” (NeuroDerm, Ltd., priority 2019, published 2022).
Counter-ions that a name gives are not always drawn. Like-named read-outs stand apart in the source and are kept apart here. Non-standard residues stand in square brackets, D forms with d. Residues, ends and D or L forms follow the SMILES beside them. Dopa = N[C@@H](Cc1ccc(O)c(O)c1)C(=O)O

Experiments:
[1] = Stability observation of the solubility solutions at 25° C. (visual inspection for precipitants); assay type: physicochemical
Protocol: The volume of the solution in the bottle was adjusted to 5 ml, either by adding solvent, or be removing any residual solution, after which the bottle was tightly closed and left at 25° C. for stability observation. […] It is further noted that throughout this document, unless mentioned otherwise, the stability was measured using the manual visual inspection Bosch apparatus MIH DX, at a magnification of ×1.75.

physchem = assay type: physicochemical
Protocol: The volume of the solution in the bottle was adjusted to 5 ml, either by adding solvent, or be removing any residual solution, after which the bottle was tightly closed and left at 25° C. for stability observation. It is noted that throughout Example 4, the concentrations in the tables below were calculated taking into account the amount of solvent added or the solution removed, in which event, the calculations were performed regarding the 5 ml+(amount removed) as the volume of the solution. It is further noted that throughout this document, unless mentioned otherwise, the stability was measured using the manual visual inspection Bosch apparatus MIH DX, at a magnification of ×1.75.
(§1) The LD-Tyr free base, prepared according to Example 2, was added to a solvent, as detailed in Table 7 below, and neutralized by addition of NaOH. When maximum solubility was observed, the solution was filtered and then transferred to a bottle that was previously weighed and flushed with nitrogen. The volume of the solution in the bottle was adjusted to 5 ml, after which the bottle was tightly closed and left at 25° C. for stability observation.
(§2) When maximum solubility was observed, the solution was filtered and then transferred to a bottle that was previously weighed and flushed with nitrogen. The volume of the solution in the bottle was adjusted to 5 ml, after which the bottle was tightly closed and left at 25° C. for stability observation.
as §2, with “stored” for “left”
as §2, with “stored” for “left”
as §1, with “LD-Lys TFA salt,” for “The LD-Tyr free base,”, “1, and which comprises two equivalents of TFA,” for “2,”, “11” for “7”, “stored” for “left”
as §2, with “As detailed above regarding other solutions, with the LD-Tyr free base when” for “When”
as §1, with “LD-Lys HCl salt,” for “The LD-Tyr free base,”, “3,” for “2,”, “13” for “7”, “by the” for “by”

[2] = 0 weeks
Protocol: (§3) It is noted that the recovery % compared the amount of any given material as measured at t=28 h (or any other presented value) compared to the amount of that material, at measured at t=0.

[3] = Analytical stability of LD-Tyr/CD formulations by HPLC (Tables 42-45c); settings: for Analytical stability result (HPLC), t = 1 week / Analytical stability result (HPLC), t = 2 weeks: in mg/mL (unit assumed)
Protocol: as §3

[4] = 0.75% CD solution, pH 8.5, 240 mg/ml salt
[5] = NB 144-4 formulation, Storage temp. 2-8° C.
[6] = NB 144-4 formulation, Storage temp. 25° C.
[7] = NB 144-4 formulation, Storage temp. 40° C.
[8] = NB 144-32 (F1), 37% LD-Tyr/0.5% CD
[9] = NB 144-34 (F2), 44% LD-Tyr/0.5% CD
[10] = NB 144-39 (F3), 30% LD-Tyr/0.5% CD

## NCCCC[C@H](NC(=O)[C@@H](N)Cc1ccc(O)c(O)c1)C(=O)O [LD-Lys HCl salt] (H-[Dopa]-Lys-OH)
[1]; [4]
  Stability: Precipitated* (precipitated within 12 hours at room temperature)
[1]; WFI, pH 6.51, 350 mg/ml salt
  Stability: Stable (physically stable for at least 12 hours)
physchem; 0.75% CD solution, pH 6.46, 240 mg/ml salt
  Appearance: Clear
physchem; [4]
  Appearance: Clear
physchem; 25 °C, aqueous buffer, thermodynamic from solid, solvent WFI, pH 6.51, HCl counter-ion, read-out: LD-Lys TFA salt concentration
  solubility thermodynamic: 350 mg/mL
physchem; WFI, pH 6.51, 350 mg/ml salt
  Appearance: Clear
physchem; solvent 0.75% CD solution, pH 6.46
  LD-Lys free base Concentration: 200 mg/mL
physchem; solvent 0.75% CD solution, pH 6.46, HCl counter-ion
  LD-Lys TFA salt concentration: 240 mg/mL
physchem; solvent 0.75% CD solution, pH 8.5
  LD-Lys free base Concentration: 200 mg/mL
physchem; solvent 0.75% CD solution, pH 8.5, HCl counter-ion
  LD-Lys TFA salt concentration: 240 mg/mL
physchem; solvent WFI, pH 6.51
  LD-Lys free base Concentration: 290 mg/mL

## C[C@@](Cc1ccc(O)c(O)c1)(NN)C(=O)O [CD]
[2]
  Analytical stability result (HPLC), t = 0: 7.37
[3]; NB 144-4 formulation (30% LD-Tyr/0.75% CD), Storage temp. 2-8° C.
  Analytical stability result (HPLC), t = 0: 7.37
[3]; [5]
  % retention, t = 1 week: 99.9%
  Analytical stability result (HPLC), t = 1 week: 7.36
  % retention, t = 2 weeks: 99.1%
  Analytical stability result (HPLC), t = 2 weeks: 7.30
[3]; [6]
  % retention, t = 1 week: 99.3%
  Analytical stability result (HPLC), t = 1 week: 7.32
  % retention, t = 2 weeks: 100.5%
  Analytical stability result (HPLC), t = 2 weeks: 7.41
[3]; [7]
  Analytical stability result (HPLC), t = 0: 7.37
  % retention, t = 1 week: 98.5%
  Analytical stability result (HPLC), t = 1 week: 7.26
[3]; [8]
  Concentration (HPLC), t = 0: 4.78
  Concentration (HPLC), t = 28 h at 32° C.: 4.77
[3]; [9]
  Concentration (HPLC), t = 0: 4.84
  Concentration (HPLC), t = 28 h at 32° C.: 4.78
[3]; [10]
  Concentration (HPLC), t = 0: 4.86
  Concentration (HPLC), t = 28 h at 32° C.: 4.74
